Values joined by “and” are separate entries in the source; they are usually repeats but may differ in a detail not shown here. Identical values can stand only once.
Assay: Feline safety study: cannabidiol quantification in serum and pharmacokinetics (LC-MS/MS)
Assay type: in vivo
Details: individual cats; oral administration of 2/mg/kg cannabidiol in capsule form
Description: On the first day of dosing, blood was collected for a PK analysis from 6 of the 8 cats. The most cooperative cats were selected for the PK analysis. […] Samples were placed into a red top clotting tube with no serum separator. […] The harvested serum was placed in cyrovials stored at −70° C. Each tube was labeled with the cat id, date of collection and collection time point. Samples were shipped overnight on dry ice to the Proteomics & Metabolomics Facility at Colorado State University.
Aliquots of feline serum were delivered to the facility on dry ice and stored at −80° C. upon receipt. […] 200 μL of cold (−20 C) 100% Acetonitrile (spiked with 60 ng/mL of d3-CBD) was added to each sample and vortexed at room temperature for 5 minutes. 200 μL of water was added and vortexed for an additional 5 minutes. 1 ml of 100% hexane was then added to each sample and vortexed for a final 5 minutes. […] The upper hexane layer was transferred to new-labeled glass vials (˜900 uL per sample), carefully avoiding the middle and lower layers. Samples were concentrated to dryness under N2 and resuspended in 60 μL of 100% acetonitrile.
An 8 point standard curve of CBD was generated in matrix background using a blank serum. Concentrations ranged from 0 ng/mL 1000 ng/mL (3.2× dilution series). 50 uL of each spiked serum sample was extracted as above.
LC-MS/MS was performed on a Waters Acquity M-Class UPLC coupled to a Waters Xevo TQ-S triple quadrupole mass spectrometer. […] Flow rate was 3.0 μL/min and injection volume was 2.0 μL. Samples were held at 6° C. in the autosampler, and the column was operated at 70° C. The MS was operated in selected reaction monitoring (SRM) mode, where a parent ion is selected by the first quadrupole, fragmented in the collision cell, then a fragment ion selected for by the third quadrupole. Product ions, collision energies, and cone voltages were optimized for each analyte by direct injection of individual synthetic standards. Inter-channel delay was set to 3 ms. The MS was operated in positive ionization mode with the capillary voltage set to 3.6 kV. […]
All Raw data files were imported into the Skyline open source software package. […] Peak areas were extracted for target compounds detected in biological samples and normalized to the peak area of the appropriate internal standard in each sample using in-house R Script (TQS-tools). CBD concentrations were calculated in nanograms per milliliter of extract (0.06 mL) and then back calculated to nanograms per mL of serum (0.05 mL of serum). […]
LOD are calculated based on the standard deviation of the response (Sy) of the 0 point calibration standard (i.e. 0 ng/mL CBD as an estimate on noise) and the slope of the calibration curve (S) at levels approximating the LOD according to the formula: LOD=3*(Sy/S). […]

Q: Which results are given for C=C(C)[C@@H]1CCC(C)=C[C@H]1c1c(O)cc(CCCCC)cc1O [cannabidiol]?
A: AUC 0-t = Area under the curve (0 time to time of last collection [24 hr]): 265.0 ng·h/mL and 54.2 ng·h/mL and 42.4 ng·h/mL and 212.2 ng·h/mL and 125.0 ng·h/mL and 194.1 ng·h/mL and 134.2 ng·h/mL and 60.2 ng·h/mL; Cmax = Maximum concentration: 8.8 ng/mL and 12.1 ng/mL and 75.3 ng/mL and 40.5 ng/mL and 53.3 ng/mL and 21.2 ng/mL; Tmax = Time of maximum concentration: 4 h and 1 h; T½ el = Half-life of elimination: 2.3 h and 1.3 h and 1.7 h
